Data from patent US8076346B2 (priority 2000, dated 2011).

Columns and labels:
[1] = Pharmacokinetics of DPB after oral DPB or NaDPB and IV NaDPB in Beagle dogs; type: in vivo; conditions: for AUC(0-t): Beagle, 75 mg/kg
Method: (§1) In accordance with the present invention, pharmacokinetic parameters were calculated using standard non-compartmental methods, as implemented in WinNonlin™ 4.0.1. […] The mean, SD and CV (%) were used to calculate the AUC0-t (μg·h/mL), C. (μg/ml) (the maximum observed concentration), Tmax (hours) (the time to reach that peak concentration) and Kel (the elimination rate constant) for each animal and each analyte.
(§2) AUC0-t was calculated using the linear trapezoidal rule, which employs an approximate integration formula. The area of each trapezoid was calculated, and the sum of all the areas of all the trapezoids yielded an estimate of the true area under the curve. (See, Gibaldi et al. Pharmacokinetics. 2nd Ed. Marcel Dekker, Inc., 1982; Yeh et al., A comparison of numerical integrating algorithms by trapezoidal, lagrange, and spline approximations. J. Pharmacokinet Biopharm. 6: 79 (1978), the disclosure of which is herein incorporated by reference.) Cmax and Tmax were then determined for each concentration vs. time profile. Elimination rate constant (Kel) was calculated using regression analyses on the natural log (ln) of plasma concentration values (y) versus time (x).
We examined the delivery of DPB to the vascular compartment by administrating directly DPB and compared it with the sodium salt of DPB in dogs. This study compared the pharmacokinetics of DPB after oral administration of a single dose of DPB (75 mg/kg) or sodium salt of DPB (75 mg/kg) in Beagle dogs. Twenty-eight Beagle dogs were administered DPB and sodium salt of DPB by a single oral gavage (n=24). Blood samples were obtained pre-dose and 0.5, 1, 2, 3, 4, 6, 12, 18, 24, 36 and 48 hours after dosing. DPB was quantified in plasma using HPLC (LLOQ=0.25 μg/mL).
(§3) We calculated AUC0-t for DPB at various times (24, 36 and 48 hours) after oral administrations of DPB and sodium salt of DPB.

[2] = tested on: seizure induced either by electroshock or pentylenetetrazole; conditions: mice, given by stomach tube; cited from earlier work
[3] = Brain concentration of DPB after oral DPB or NaDPB and IV NaDPB in Sprague-Dawley rats; type: in vivo; conditions: for concentration at 18 h / concentration at 24 h / concentration at 36 h / concentration at 48 h: rat, in vivo
Method: In this study, we measured the brain concentration of DPB. Brains were collected as soon as possible after euthanasia from each rat. They were stored in a freezer at −80° C. prior to determination of DPB brain tissue concentrations. Table 6 summarizes the brain concentrations of DPB after oral administration of DPB and sodium salt of DPB in Sprague-Dawley rats.

[4] = Pharmacokinetics of DPB after oral DPB or NaDPB and IV NaDPB in Sprague-Dawley rats; type: in vivo; conditions: for AUC(0-t): Sprague-Dawley, 150 mg/kg; for AUC(0-t) / Cmax / Tmax / half-life / bioavailability: rat, in vivo; for bioavailability: read-out: F (absolute bioavailability)
Method: as §1, §2
We examined the delivery of DPB to the vascular compartment by administrating directly DPB and compared it with the sodium salt of DPB. This study compared the pharmacokinetics of DPB after oral administration of DPB (150 mg/kg) and sodium salt of DPB (150 mg/kg) in rats. Fifty-four rats were administered DPB and sodium salt of DPB by a single oral gavage (n=54). Blood samples were obtained (approximately 0.5 mL each) were collected following each treatment from animal via the jugular vein. Blood samplings from groups of 3 rats/sex/time point were collected at various times after dosing, in order to provide the complete time-points of pre-dose, 0, 0.5, 1, 2, 3, 4, 6, 12, 18, 24, 36 and 48 hours after dosing. Each blood sample was collected into a tube containing lithium heparin and the samples were spun in a refrigerated centrifuge. The resultant plasma was stored at −80° C. prior to analysis. DPB was quantified in plasma using HPLC (LLOQ=0.25 μg/mL).
as §3

in vivo = conditions: dog, analyte MMMDPB
Method: as §1, §2
Blood samples were obtained pre-dose and 0.25, 0.5, 1, 2, 3, 4, 6, 9, 12, 15, 18, and 24 hours after dosing. Venous blood (˜1 mL) were drawn and collected in lithium heparin (anticoagulant). Blood samples were spun in a refrigerated centrifuge and plasma were stored at −80° C. prior to analysis. […] Calibration curves were obtained using a weighted (1/C^2) least squares linear regression analysis of peak area ratio (analyte/internal standard) versus the nominal concentration of the calibration standards. Concentrations were obtained by interpolation from the run defined calibration curve. Regressions and figures were generated by PE Sciex Analyst Version 1.2 software.
Plasma samples were thawed and subjected to solid phase extraction with 2 mL acetonitrile prior to HPLC method with Tandem Mass Spectrometry Detection. Chromatographic conditions were performed as followed: […]

[5] = dog, in vivo, po, oral 75 mg/kg, analyte DPB in plasma, read-out: AUC0-t
[6] = dog, in vivo, po, oral 75 mg/kg, analyte DPB, read-out: AUC0-24
[7] = dog, in vivo, po, oral 75 mg/kg, analyte DPB, read-out: AUC0-36
[8] = dog, in vivo, po, oral 75 mg/kg, analyte DPB, read-out: AUC0-48
[9] = dog, in vivo, oral 75 mg/kg, analyte DPB in plasma
[10] = female, po, Sprague-Dawley rats, female, oral 150 mg/kg, analyte DPB in plasma, read-out: AUC0-t
[11] = female, po, female, oral 150 mg/kg, analyte DPB, read-out: AUC0-36
[12] = female, po, female, oral 150 mg/kg, analyte DPB, read-out: AUC0-48
[13] = male, po, Sprague-Dawley rats, male, oral 150 mg/kg, analyte DPB in plasma, read-out: AUC0-t
[14] = male, po, male, oral 150 mg/kg, analyte DPB, read-out: AUC0-36
[15] = male, po, male, oral 150 mg/kg, analyte DPB, read-out: AUC0-48
[16] = Sprague-Dawley rats, female, oral 150 mg/kg, analyte DPB in plasma
[17] = Sprague-Dawley rats, male, oral 150 mg/kg, analyte DPB in plasma
[18] = dog, in vivo, IV infusion 75 mg/kg, analyte DPB in plasma
[19] = oral 75 mg/kg, relative to oral DPB free acid
[20] = Sprague-Dawley rats, female, IV infusion 150 mg/kg, analyte DPB in plasma
[21] = Sprague-Dawley rats, male, IV infusion 150 mg/kg, analyte DPB in plasma

## O=C1NC(=O)C(c2ccccc2)(c2ccccc2)C(=O)N1 [DPB, 5,5-diphenyl barbituric acid, reference compound]
[1]; [5]
  AUC(0-t): 222 µg·h/mL
[1]; [6]
  AUC(0-t): 231 µg·h/mL
[1]; [7]
  AUC(0-t): 234 µg·h/mL
[1]; [8]
  AUC(0-t): 234 µg·h/mL
[1]; [9]
  Cmax: 18.7 µg/mL
  Tmax: 6.5 h
  half-life: 4 h
[2]
  protection from seizure: effective
[3]; male, oral 150 mg/kg, 48 hr
  Mean brain concentration of DPB: BQL
[4]; [10]
  AUC(0-t): 1950 µg·h/mL
[4]; [11]
  AUC(0-t): 1600 µg·h/mL
[4]; [12]
  AUC(0-t): 1950 µg·h/mL
[4]; [13]
  AUC(0-t): 776 µg·h/mL
[4]; [14]
  AUC(0-t): 757 µg·h/mL
[4]; [15]
  AUC(0-t): 776 µg·h/mL
[4]; [16]
  Cmax: 74 µg/mL
  Tmax: 12 h
  half-life: 33.2 h
[4]; [17]
  Cmax: 38.3 µg/mL
  Tmax: 6 h
  half-life: 6.6 h

## COCN1C(=O)NC(=O)C(c2ccccc2)(c2ccccc2)C1=O [MMMDPB, monomethoxymethyl-5,5-diphenyl barbituric acid, reference compound]
In vivo; Beagle, Beagle dogs, oral 30 mg/kg vs IV 15 mg/kg, read-out: F (absolute bioavailability)
  bioavailability: 107%
In vivo; Beagle, po, 30 mg/kg, mean oral bioavailability of MMMDPB, Beagle dogs, oral 30 mg/kg, mean
  bioavailability: 107%
In vivo; Beagle, po, 30 mg/kg, oral bioavailability of MMMDPB, range, Beagle dogs, oral 30 mg/kg, range over animals
  bioavailability: 43 to 177%

## O=C1NC(=O)C(c2ccccc2)(c2ccccc2)C(=O)N1.[Na] [NaDPB, sodium 5,5-diphenyl barbiturate]
[1]; dog, in vivo, iv, IV infusion 75 mg/kg, analyte DPB in plasma, read-out: AUC0-t
  AUC(0-t): 1570 µg·h/mL
[1]; dog, in vivo, iv, IV infusion 75 mg/kg, analyte DPB, read-out: AUC0-24
  AUC(0-t): 1410 µg·h/mL
[1]; dog, in vivo, iv, IV infusion 75 mg/kg, analyte DPB, read-out: AUC0-36
  AUC(0-t): 1600 µg·h/mL
[1]; dog, in vivo, iv, IV infusion 75 mg/kg, analyte DPB, read-out: AUC0-48
  AUC(0-t): 1620 µg·h/mL
[1]; [5]
  AUC(0-t): 883 µg·h/mL
[1]; [6]
  AUC(0-t): 883 µg·h/mL
[1]; [7]
  AUC(0-t): 962 µg·h/mL
[1]; [8]
  AUC(0-t): 962 µg·h/mL
[1]; [18]
  Cmax: 95.7 µg/mL
  Tmax: 0.5 h
  half-life: 6 h
[1]; dog, in vivo, oral 75 mg/kg vs IV 75 mg/kg, read-out: absolute bioavailability of DPB
  bioavailability: ~58%
[1]; [9]
  Cmax: 54.2 µg/mL
  Tmax: 7.8 h
  half-life: 5.9 h
[1]; [19]
  AUC0-t for DPB, increase versus oral DPB: ~4 fold
  Cmax for DPB, increase versus oral DPB: ~3 fold
[3]; female, IV infusion 150 mg/kg
  concentration at 18 h: 36100 ng/g
  concentration at 24 h: 40700 ng/g
  concentration at 36 h: 21900 ng/g
[3]; female, oral 150 mg/kg
  concentration at 24 h: 25800 ng/g
  concentration at 36 h: 28400 ng/g
[3]; female, oral 150 mg/kg, 48 hr
  concentration at 48 h: 14900 ng/g
[3]; male, IV infusion 150 mg/kg
  concentration at 18 h: 41200 ng/g
  concentration at 24 h: 35600 ng/g
  concentration at 36 h: 27500 ng/g
[3]; male, oral 150 mg/kg
  concentration at 24 h: 29900 ng/g
  concentration at 36 h: 23600 ng/g
[3]; male, oral 150 mg/kg, 48 hr
  concentration at 48 h: 9460 ng/g
[4]; Sprague-Dawley rats, female, oral 150 mg/kg, relative to oral DPB free acid
  AUC0-t for DPB, increase versus oral DPB: ~2 fold
[4]; female, iv, Sprague-Dawley rats, female, IV infusion 150 mg/kg, analyte DPB in plasma, read-out: AUC0-t
  AUC(0-t): 4330 µg·h/mL
[4]; female, iv, female, IV infusion 150 mg/kg, analyte DPB, read-out: AUC0-36
  AUC(0-t): 4760 µg·h/mL
[4]; [10]
  AUC(0-t): 4040 µg·h/mL
[4]; [11]
  AUC(0-t): 3130 µg·h/mL
[4]; [12]
  AUC(0-t): 4040 µg·h/mL
[4]; male, iv, Sprague-Dawley rats, male, IV infusion 150 mg/kg, analyte DPB in plasma, read-out: AUC0-t
  AUC(0-t): 4030 µg·h/mL
[4]; male, iv, male, IV infusion 150 mg/kg, analyte DPB, read-out: AUC0-36
  AUC(0-t): 4610 µg·h/mL
[4]; male, iv, male, IV infusion 150 mg/kg, analyte DPB, read-out: AUC0-48
  AUC(0-t): 5690 µg·h/mL
[4]; [13]
  AUC(0-t): 3410 µg·h/mL
[4]; [14]
  AUC(0-t): 2720 µg·h/mL
[4]; [15]
  AUC(0-t): 3410 µg·h/mL
[4]; [20]
  Cmax: 174 µg/mL
  Tmax: 2 h
  half-life: 26.8 h
[4]; [16]
  Cmax: 104 µg/mL
  Tmax: 12 h
  half-life: 32.9 h
[4]; Sprague-Dawley rats, female, oral 150 mg/kg, analyte DPB
  bioavailability: 87.7%
[4]; [21]
  Cmax: 184 µg/mL
  Tmax: 1 h
  half-life: 24.2 h
[4]; [17]
  Cmax: 86.9 µg/mL
  Tmax: 18 h
  half-life: 17.6 h
[4]; Sprague-Dawley rats, male, oral 150 mg/kg, analyte DPB
  bioavailability: 70.6%

## COCN1C(=O)NC(=O)C(c2ccccc2)(c2ccccc2)C1=O.[Na] [NaMMMDPB, sodium monomethoxymethyl-5,5-diphenyl barbiturate]
In vivo; in vivo, 30 mg/kg, oral 30 mg/kg vs IV 15 mg/kg, read-out: F (absolute bioavailability)
  bioavailability: 60%
In vivo; in vivo, po, 30 mg/kg, mean oral bioavailability of MMMDPB, oral 30 mg/kg, mean
  bioavailability: 60%
In vivo; in vivo, po, 30 mg/kg, oral bioavailability of MMMDPB, range, oral 30 mg/kg, range over animals
  bioavailability: 34 to 99%
